According to publication PMC12649549, “Sequence Permutation Generated Lysine and Tryptophan-Rich Antimicrobial Peptides with Enhanced Therapeutic Index” (Antibiotics, 2025):
Like-named read-outs stand apart in the source and are kept apart here.

Legend:
[1] = test system: A. baumannii 14B0097 (Acinetobacter sp., BCRC number 14B0097)
Procedure, shortened: (§1)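 Salt and pH tolerance was assessed by determining MICs in LYM medium containing 50–300 mM NaCl, 0.5–2.5 mM MgCl2, or at pH 4.5–6.5, alongside MH broth. The inoculum was 5 × 10^5 CFU/mL.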

[2] = test system: A. baumannii 14B0091 (Acinetobacter sp., BCRC number 14B0091)
Procedure, shortened: as §1

S. aureus ATCC 25923 = test system: S. aureus ATCC 25923
Procedure, shortened: as §1

S. aureus ATCC 33591 = test system: S. aureus ATCC 33591
Procedure, shortened: as §1

S. aureus ATCC 6538 = test system: S. aureus ATCC 6538
Procedure, shortened: as §1

[3] = test system: Pseudomonas aeruginosa Migula (ATCC 27853)
Procedure, shortened: as §1

[4] = test system: Escherichia coli (ATCC 25922)
Procedure, shortened: as §1

[5] = LYM broth, 0 mM NaCl, 16 h, 37 °C
[6] = LYM broth, 50 mM NaCl, 16 h, 37 °C
[7] = LYM broth, 100 mM NaCl, 16 h, 37 °C
[8] = LYM broth, 200 mM (NaCl), 16 h, 37 °C
[9] = LYM broth, 300 mM (NaCl), 16 h, 37 °C
[10] = MH broth, 5 × 10^5 CFU/mL, 16 h, 37 °C, repeated three times

Question: How did the MIC [1, 5] turn out when Ac-KKKWRKWLKWLAK-NH2 [Peptide W5K12] was run?
Answer: Its MIC is 1.56 µg/mL.

Question: And the MIC ([1]; LYM broth, 0.5 mM MgCl2)?
Answer: The MIC was 1.56 µg/mL.

Question: And the MIC ([1]; LYM broth, 1.5 mM MgCl2)?
Answer: The MIC was 1.56 µg/mL.

Question: And the MIC ([1]; LYM broth, 2.5 mM MgCl2)?
Answer: The MIC was 3.13 µg/mL.

Question: What about the MIC [1, 6] of the same substance?
Answer: The MIC was 1.56 µg/mL.

Question: And the MIC [1, 7]?
Answer: Its MIC is 1.56 µg/mL.

Question: And the MIC [1, 8]?
Answer: Its MIC is 1.56 µg/mL.

Question: What about the MIC [1, 9] of the same substance?
Answer: The MIC was 3.13 µg/mL.

Question: What about the MIC ([1]; LYM broth, pH 4.5) of the same substance?
Answer: Its MIC is 3.13 µg/mL.

Question: What about the MIC ([1]; LYM broth, pH 5.5) of the same substance?
Answer: The MIC was 3.13 µg/mL.

Question: And the MIC ([1]; LYM broth, pH 6.5)?
Answer: The MIC was 1.56 µg/mL.

Question: And the MIC [1, 10]?
Answer: The MIC was 1.56 µg/mL.

Question: What about the MIC [2, 5] of the same substance?
Answer: The MIC was 1.56 µg/mL.

Question: And the MIC ([2]; LYM broth, 0.5 mM MgCl2)?
Answer: Its MIC is 1.56 µg/mL.

Question: What about the MIC ([2]; LYM broth, 1.5 mM MgCl2) of the same substance?
Answer: Its MIC is 1.56 µg/mL.

Question: And the MIC ([2]; LYM broth, 2.5 mM MgCl2)?
Answer: Its MIC is 1.56 µg/mL.

Question: And the MIC [2, 6]?
Answer: Its MIC is 1.56 µg/mL.

Question: And the MIC [2, 7]?
Answer: Its MIC is 1.56 µg/mL.

Question: And the MIC [2, 8]?
Answer: The MIC was 1.56 µg/mL.

Question: And the MIC [2, 9]?
Answer: The MIC was 3.13 µg/mL.

Question: What about the MIC ([2]; LYM broth, pH 4.5) of the same substance?
Answer: The MIC was 3.13 µg/mL.

Question: And the MIC ([2]; LYM broth, pH 5.5)?
Answer: The MIC was 3.13 µg/mL.

Question: And the MIC ([2]; LYM broth, pH 6.5)?
Answer: The MIC was 1.56 µg/mL.

Question: What about the MIC [2, 10] of the same substance?
Answer: The MIC was 1.56 µg/mL.

Question: What about the MIC (S. aureus ATCC 25923; [5]) of the same substance?
Answer: Its MIC is 1.56 µg/mL.

Question: What about the MIC (S. aureus ATCC 25923; LYM broth, 0.5 mM MgCl2) of the same substance?
Answer: The MIC was 1.56 µg/mL.

Question: And the MIC (S. aureus ATCC 25923; LYM broth, 1.5 mM MgCl2)?
Answer: Its MIC is 3.13 µg/mL.

Question: What about the MIC (S. aureus ATCC 25923; LYM broth, 2.5 mM MgCl2) of the same substance?
Answer: Its MIC is 3.13 µg/mL.

Question: What about the MIC (S. aureus ATCC 25923; [6]) of the same substance?
Answer: The MIC was 3.13 µg/mL.

Question: And the MIC (S. aureus ATCC 25923; [7])?
Answer: Its MIC is 3.13 µg/mL.

Question: And the MIC (S. aureus ATCC 25923; [8])?
Answer: The MIC was 6.25 µg/mL.

Question: What about the MIC (S. aureus ATCC 25923; [9]) of the same substance?
Answer: Its MIC is 12.5 µg/mL.

Question: And the MIC (S. aureus ATCC 25923; LYM broth, pH 4.5)?
Answer: The MIC was 3.13 µg/mL.

Question: And the MIC (S. aureus ATCC 25923; LYM broth, pH 5.5)?
Answer: The MIC was 3.13 µg/mL.

Question: And the MIC (S. aureus ATCC 25923; LYM broth, pH 6.5)?
Answer: The MIC was 1.56 µg/mL.

Question: What about the MIC (S. aureus ATCC 25923; [10]) of the same substance?
Answer: Its MIC is 3.13 µg/mL.

Question: What about the MIC (S. aureus ATCC 33591; [5]) of the same substance?
Answer: Its MIC is 3.13 µg/mL.

Question: What about the MIC (S. aureus ATCC 33591; LYM broth, 0.5 mM MgCl2) of the same substance?
Answer: Its MIC is 3.13 µg/mL.

Question: And the MIC (S. aureus ATCC 33591; LYM broth, 1.5 mM MgCl2)?
Answer: The MIC was 3.13 µg/mL.

Question: And the MIC (S. aureus ATCC 33591; LYM broth, 2.5 mM MgCl2)?
Answer: Its MIC is 3.13 µg/mL.

Question: And the MIC (S. aureus ATCC 33591; [6])?
Answer: The MIC was 3.13 µg/mL.

Question: What about the MIC (S. aureus ATCC 33591; [7]) of the same substance?
Answer: Its MIC is 3.13 µg/mL.

Question: What about the MIC (S. aureus ATCC 33591; [8]) of the same substance?
Answer: Its MIC is 6.25 µg/mL.

Question: What about the MIC (S. aureus ATCC 33591; [9]) of the same substance?
Answer: The MIC was 12.5 µg/mL.

Question: What about the MIC (S. aureus ATCC 33591; LYM broth, pH 4.5) of the same substance?
Answer: Its MIC is 3.13 µg/mL.

Question: What about the MIC (S. aureus ATCC 33591; LYM broth, pH 5.5) of the same substance?
Answer: The MIC was 3.13 µg/mL.

Question: What about the MIC (S. aureus ATCC 33591; LYM broth, pH 6.5) of the same substance?
Answer: Its MIC is 3.13 µg/mL.

Question: And the MIC (S. aureus ATCC 33591; [10])?
Answer: The MIC was 6.25 µg/mL.

Question: And the MIC (S. aureus ATCC 6538; [5])?
Answer: The MIC was 1.56 µg/mL.

Question: And the MIC (S. aureus ATCC 6538; LYM broth, 0.5 mM MgCl2)?
Answer: Its MIC is 1.56 µg/mL.

Question: And the MIC (S. aureus ATCC 6538; LYM broth, 1.5 mM MgCl2)?
Answer: The MIC was 1.56 µg/mL.

Question: And the MIC (S. aureus ATCC 6538; LYM broth, 2.5 mM MgCl2)?
Answer: Its MIC is 1.56 µg/mL.

Question: And the MIC (S. aureus ATCC 6538; [6])?
Answer: Its MIC is 1.56 µg/mL.

Question: And the MIC (S. aureus ATCC 6538; [7])?
Answer: Its MIC is 3.13 µg/mL.

Question: What about the MIC (S. aureus ATCC 6538; [8]) of the same substance?
Answer: Its MIC is 6.25 µg/mL.

Question: And the MIC (S. aureus ATCC 6538; [9])?
Answer: The MIC was 12.5 µg/mL.

Question: And the MIC (S. aureus ATCC 6538; LYM broth, pH 4.5)?
Answer: Its MIC is 3.13 µg/mL.

Question: And the MIC (S. aureus ATCC 6538; LYM broth, pH 5.5)?
Answer: Its MIC is 1.56 µg/mL.

Question: And the MIC (S. aureus ATCC 6538; LYM broth, pH 6.5)?
Answer: The MIC was 1.56 µg/mL.

Question: And the MIC (S. aureus ATCC 6538; [10])?
Answer: Its MIC is 3.13 µg/mL.

Question: What about the MIC [3, 5] of the same substance?
Answer: Its MIC is 1.56 µg/mL.

Question: And the MIC ([3]; LYM broth, 0.5 mM MgCl2)?
Answer: The MIC was 1.56 µg/mL.

Question: And the MIC ([3]; LYM broth, 1.5 mM MgCl2)?
Answer: Its MIC is 1.56 µg/mL.

Question: And the MIC ([3]; LYM broth, 2.5 mM MgCl2)?
Answer: Its MIC is 3.13 µg/mL.

Question: And the MIC [3, 6]?
Answer: Its MIC is 1.56 µg/mL.

Question: And the MIC [3, 7]?
Answer: The MIC was 3.13 µg/mL.

Question: What about the MIC [3, 8] of the same substance?
Answer: The MIC was 6.25 µg/mL.

Question: What about the MIC [3, 9] of the same substance?
Answer: The MIC was 12.5 µg/mL.

Question: What about the MIC ([3]; LYM broth, pH 4.5) of the same substance?
Answer: The MIC was 1.56 µg/mL.

Question: What about the MIC ([3]; LYM broth, pH 5.5) of the same substance?
Answer: Its MIC is 1.56 µg/mL.

Question: And the MIC ([3]; LYM broth, pH 6.5)?
Answer: The MIC was 1.56 µg/mL.

Question: And the MIC [3, 10]?
Answer: The MIC was 3.13 µg/mL.

Question: And the MIC [4, 5]?
Answer: Its MIC is 1.56 µg/mL.

Question: What about the MIC ([4]; LYM broth, 0.5 mM MgCl2) of the same substance?
Answer: The MIC was 3.13 µg/mL.

Question: What about the MIC ([4]; LYM broth, 1.5 mM MgCl2) of the same substance?
Answer: Its MIC is 3.13 µg/mL.

Question: What about the MIC ([4]; LYM broth, 2.5 mM MgCl2) of the same substance?
Answer: The MIC was 3.13 µg/mL.

Question: And the MIC [4, 6]?
Answer: The MIC was 3.13 µg/mL.

Question: And the MIC [4, 7]?
Answer: The MIC was 3.13 µg/mL.

Question: What about the MIC [4, 8] of the same substance?
Answer: The MIC was 6.25 µg/mL.

Question: What about the MIC [4, 9] of the same substance?
Answer: The MIC was 12.5 µg/mL.

Question: What about the MIC ([4]; LYM broth, pH 4.5) of the same substance?
Answer: The MIC was 1.56 µg/mL.

Question: And the MIC ([4]; LYM broth, pH 5.5)?
Answer: Its MIC is 1.56 µg/mL.

Question: What about the MIC ([4]; LYM broth, pH 6.5) of the same substance?
Answer: The MIC was 1.56 µg/mL.

Question: What about the MIC [4, 10] of the same substance?
Answer: Its MIC is 3.13 µg/mL.
